Test results published in ChEMBL document CHEMBL1201862, “PubChem BioAssay data set” (2004).
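Assay format: 96-well plates, 48-hour exposure. GI50 = concentration required for 50% inhibition of growth.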 Calls of active or inactive are those of the source. Rule as the data show it: active = GI50 up to about 1.1 µM and inactive = higher.

Experiments:
Test in all cases: growth of human tumour cells (NCI), 48 h
786-0 = test system: 786-0
A549 = test system: A549
ACHN = test system: ACHN
BT-549 = test system: BT-549
CAKI-1 = test system: CAKI-1
CCRF-CEM = test system: CCRF-CEM
COLO 205 = test system: COLO 205
DU-145 = test system: DU-145
EKVX = test system: EKVX
HCC 2998 = test system: HCC 2998
HCT-116 = test system: HCT-116
HCT-15 = test system: HCT-15
HL-60 = test system: HL-60
HOP-62 = test system: HOP-62
HT-29 = test system: HT-29
Hs-578T = test system: Hs-578T
IGROV-1 = test system: IGROV-1
K562 = test system: K562
KM12 = test system: KM12
LOX IMVI = test system: LOX IMVI
M14 = test system: M14
MCF7 = test system: MCF7
MDA-MB-231 = test system: MDA-MB-231
MDA-MB-435 = test system: MDA-MB-435
MDA-N = test system: MDA-N
MOLT-4 = test system: MOLT-4
Malme-3M = test system: Malme-3M
NCI-H23 = test system: NCI-H23
NCI-H460 = test system: NCI-H460
NCI-H522 = test system: NCI-H522
NCI/ADR-RES = test system: NCI/ADR-RES
OVCAR-3 = test system: OVCAR-3
OVCAR-4 = test system: OVCAR-4
OVCAR-5 = test system: OVCAR-5
OVCAR-8 = test system: OVCAR-8
PC-3 = test system: PC-3
RXF 393 = test system: RXF 393
SF-268 = test system: SF-268
SF-295 = test system: SF-295
SF-539 = test system: SF-539
SK-MEL-2 = test system: SK-MEL-2
SK-MEL-5 = test system: SK-MEL-5
SK-OV-3 = test system: SK-OV-3
SN12C = test system: SN12C
SNB-75 = test system: SNB-75
SR = test system: SR
SW-620 = test system: SW-620
T47D = test system: T47D
TK-10 = test system: TK-10
UACC-257 = test system: UACC-257
UACC-62 = test system: UACC-62
UO-31 = test system: UO-31
HOP-92 = test system: HOP-92
NCI-H226 = test system: NCI-H226
RPMI-8226 = test system: RPMI-8226
SK-MEL-28 = test system: SK-MEL-28
SNB-19 = test system: SNB-19

For `CC(=O)n1nc(-c2ccc3ccccc3c2)nc1C`, which GI50 (786-0) is on record?
The GI50 was > 100 µM (inactive).

And the GI50 (A549)?
The GI50 was 81.1 µM (inactive).

And the GI50 (ACHN)?
Its GI50 is 73.1 µM (inactive).

What about the GI50 (BT-549) of the same molecule?
Its GI50 is 48.6 µM (inactive).

What about the GI50 (CAKI-1) of the same molecule?
The GI50 was 53.7 µM (inactive).

What about the GI50 (CCRF-CEM) of the same molecule?
The GI50 was 83.8 µM (inactive).

What about the GI50 (COLO 205) of the same molecule?
The GI50 was > 100 µM (inactive).

And the GI50 (DU-145)?
The GI50 was 94.6 µM (inactive).

What about the GI50 (EKVX) of the same molecule?
Its GI50 is 63 µM (inactive).

And the GI50 (HCC 2998)?
The GI50 was > 100 µM (inactive).

What about the GI50 (HCT-116) of the same molecule?
The GI50 was 67.3 µM (inactive).

And the GI50 (HCT-15)?
Its GI50 is 35.6 µM.

And the GI50 (HL-60)?
The GI50 was 46 µM (inactive).

And the GI50 (HOP-62)?
The GI50 was 39.5 µM (inactive).

And the GI50 (HT-29)?
Its GI50 is > 100 µM (inactive).

And the GI50 (Hs-578T)?
Its GI50 is 39.4 µM (inactive).

What about the GI50 (IGROV-1) of the same molecule?
The GI50 was > 100 µM (inactive).

What about the GI50 (K562) of the same molecule?
Its GI50 is 90.8 µM (inactive).

What about the GI50 (KM12) of the same molecule?
Its GI50 is 23.9 µM (inactive).

What about the GI50 (LOX IMVI) of the same molecule?
The GI50 was 57.3 µM (inactive).

And the GI50 (M14)?
The GI50 was > 100 µM (inactive).

What about the GI50 (MCF7) of the same molecule?
The GI50 was > 100 µM (inactive).

And the GI50 (MDA-MB-231)?
The GI50 was > 100 µM (inactive).

What about the GI50 (MDA-MB-435) of the same molecule?
The GI50 was 33.7 µM (inactive).

What about the GI50 (MDA-N) of the same molecule?
Its GI50 is 70.8 µM (inactive).

What about the GI50 (MOLT-4) of the same molecule?
The GI50 was 56.8 µM (inactive).

What about the GI50 (Malme-3M) of the same molecule?
The GI50 was > 100 µM (inactive).

What about the GI50 (NCI-H23) of the same molecule?
Its GI50 is > 10 µM (inactive).

What about the GI50 (NCI-H460) of the same molecule?
The GI50 was 95.9 µM (inactive).

And the GI50 (NCI-H522)?
The GI50 was > 100 µM (inactive).

And the GI50 (NCI/ADR-RES)?
Its GI50 is > 100 µM (inactive).

What about the GI50 (OVCAR-3) of the same molecule?
The GI50 was > 100 µM (inactive).

And the GI50 (OVCAR-4)?
The GI50 was 91 µM (inactive).

What about the GI50 (OVCAR-5) of the same molecule?
Its GI50 is > 100 µM (inactive).

What about the GI50 (OVCAR-8) of the same molecule?
Its GI50 is > 100 µM (inactive).

What about the GI50 (PC-3) of the same molecule?
Its GI50 is 62.2 µM (inactive).

And the GI50 (RXF 393)?
Its GI50 is > 100 µM (inactive).

What about the GI50 (SF-268) of the same molecule?
The GI50 was > 100 µM (inactive).

And the GI50 (SF-295)?
Its GI50 is 52.8 µM (inactive).

And the GI50 (SF-539)?
The GI50 was > 100 µM (inactive).

And the GI50 (SK-MEL-2)?
The GI50 was > 100 µM (inactive).

And the GI50 (SK-MEL-5)?
Its GI50 is 36.1 µM (inactive).

And the GI50 (SK-OV-3)?
Its GI50 is > 100 µM (inactive).

What about the GI50 (SN12C) of the same molecule?
The GI50 was > 100 µM (inactive).

And the GI50 (SNB-75)?
The GI50 was 70.3 µM (inactive).

What about the GI50 (SR) of the same molecule?
The GI50 was > 100 µM (inactive).

What about the GI50 (SW-620) of the same molecule?
Its GI50 is 32.8 µM (inactive).

What about the GI50 (T47D) of the same molecule?
The GI50 was 52.4 µM (inactive).

What about the GI50 (TK-10) of the same molecule?
Its GI50 is > 100 µM (inactive).

What about the GI50 (UACC-257) of the same molecule?
Its GI50 is 83.9 µM (inactive).

What about the GI50 (UACC-62) of the same molecule?
The GI50 was 89.9 µM (inactive).

What about the GI50 (UO-31) of the same molecule?
The GI50 was 39.4 µM (inactive).

With `N#Cc1nc(-c2ccc(-c3nc(C#N)c(N)o3)cc2)oc1N` as the molecule, how does the GI50 (786-0) read?
Its GI50 is > 10 µM (inactive).

What about the GI50 (A549) of the same molecule?
Its GI50 is > 10 µM (inactive).

And the GI50 (ACHN)?
Its GI50 is > 10 µM (inactive).

And the GI50 (BT-549)?
The GI50 was > 10 µM (inactive).

And the GI50 (CAKI-1)?
The GI50 was > 10 µM (inactive).

What about the GI50 (CCRF-CEM) of the same molecule?
The GI50 was > 10 µM (inactive).

And the GI50 (COLO 205)?
The GI50 was > 10 µM (inactive).

And the GI50 (DU-145)?
The GI50 was > 10 µM (inactive).

What about the GI50 (EKVX) of the same molecule?
The GI50 was > 10 µM (inactive).

What about the GI50 (HCC 2998) of the same molecule?
The GI50 was > 10 µM (inactive).

What about the GI50 (HCT-116) of the same molecule?
The GI50 was > 10 µM (inactive).

What about the GI50 (HCT-15) of the same molecule?
Its GI50 is > 10 µM.

And the GI50 (HL-60)?
Its GI50 is > 10 µM (inactive).

And the GI50 (HOP-62)?
The GI50 was > 10 µM (inactive).

And the GI50 (HOP-92)?
Its GI50 is > 10 µM (inactive).

What about the GI50 (HT-29) of the same molecule?
The GI50 was > 10 µM (inactive).

What about the GI50 (Hs-578T) of the same molecule?
The GI50 was > 10 µM (inactive).

What about the GI50 (IGROV-1) of the same molecule?
Its GI50 is > 10 µM (inactive).

What about the GI50 (K562) of the same molecule?
Its GI50 is > 10 µM (inactive).

What about the GI50 (KM12) of the same molecule?
Its GI50 is > 10 µM (inactive).

What about the GI50 (LOX IMVI) of the same molecule?
Its GI50 is > 10 µM (inactive).

And the GI50 (M14)?
The GI50 was > 10 µM (inactive).

What about the GI50 (MCF7) of the same molecule?
The GI50 was > 10 µM (inactive).

And the GI50 (MDA-MB-231)?
Its GI50 is > 10 µM (inactive).

What about the GI50 (MDA-MB-435) of the same molecule?
Its GI50 is > 10 µM (inactive).

What about the GI50 (MDA-N) of the same molecule?
The GI50 was > 10 µM (inactive).

And the GI50 (MOLT-4)?
Its GI50 is > 10 µM (inactive).

What about the GI50 (Malme-3M) of the same molecule?
Its GI50 is > 10 µM (inactive).

What about the GI50 (NCI-H226) of the same molecule?
The GI50 was > 10 µM (inactive).

What about the GI50 (NCI-H23) of the same molecule?
Its GI50 is > 10 µM (inactive).

What about the GI50 (NCI-H460) of the same molecule?
Its GI50 is > 10 µM (inactive).

What about the GI50 (NCI-H522) of the same molecule?
The GI50 was > 10 µM (inactive).

What about the GI50 (NCI/ADR-RES) of the same molecule?
Its GI50 is > 10 µM (inactive).

What about the GI50 (OVCAR-4) of the same molecule?
The GI50 was > 10 µM (inactive).

And the GI50 (OVCAR-8)?
The GI50 was > 10 µM (inactive).

What about the GI50 (PC-3) of the same molecule?
The GI50 was > 10 µM (inactive).

And the GI50 (RPMI-8226)?
The GI50 was > 10 µM (inactive).

And the GI50 (RXF 393)?
Its GI50 is > 10 µM (inactive).

And the GI50 (SF-268)?
The GI50 was > 10 µM (inactive).

And the GI50 (SF-295)?
The GI50 was > 10 µM (inactive).

And the GI50 (SF-539)?
Its GI50 is > 10 µM (inactive).

What about the GI50 (SK-MEL-28) of the same molecule?
The GI50 was > 10 µM (inactive).

And the GI50 (SK-MEL-5)?
The GI50 was > 10 µM (inactive).

What about the GI50 (SK-OV-3) of the same molecule?
The GI50 was > 10 µM (inactive).

What about the GI50 (SN12C) of the same molecule?
Its GI50 is > 10 µM (inactive).

And the GI50 (SNB-19)?
Its GI50 is > 10 µM (inactive).

And the GI50 (SNB-75)?
The GI50 was > 10 µM (inactive).

What about the GI50 (SR) of the same molecule?
Its GI50 is > 10 µM (inactive).

What about the GI50 (SW-620) of the same molecule?
The GI50 was > 10 µM (inactive).

What about the GI50 (T47D) of the same molecule?
Its GI50 is > 10 µM (inactive).

And the GI50 (TK-10)?
The GI50 was > 10 µM (inactive).

What about the GI50 (UACC-257) of the same molecule?
Its GI50 is > 10 µM (inactive).

What about the GI50 (UACC-62) of the same molecule?
Its GI50 is > 10 µM (inactive).

What about the GI50 (UO-31) of the same molecule?
Its GI50 is > 10 µM (inactive).
